Laboratory results taken from article PMC11003488 (Journal of Enzyme Inhibition and Medicinal Chemistry, 2023).
Like-named read-outs stand apart in the source and are kept apart here.

Key:
NCI-H522 = test: NCI-60 SRB growth inhibition, one-dose and five-dose; format: cell-based; settings: Homo sapiens; for GI50: NCI-H522; for inhibition at 10 µM: NCI-H522, read-out: percent growth inhibition
K-562 = test: as above; format: cell-based; settings: Homo sapiens; for GI50: K562; for inhibition at 10 µM: K562, read-out: percent growth inhibition
[1] = tested on: Ovarian cancer cell lines; test: NCI-60 SRB growth inhibition, subpanel; format: cell-based, human; settings: for GI50: Homo sapiens
SK-MEL-2 = test: NCI-60 SRB growth inhibition, one-dose and five-dose; format: cell-based; settings: Homo sapiens, SK-MEL-2, read-out: percent growth inhibition
Breast cancer cell lines = test: NCI-60 SRB growth inhibition, subpanel; format: cell-based, human; settings: for GI50: Homo sapiens
Human VEGFR-2 = Human VEGFR-2 (Homo sapiens, UniProt P35968); test: VEGFR-2 inhibition assay; format: biochemical
[2] = tested on: Prostate cancer cell lines; test: NCI-60 SRB growth inhibition, subpanel; format: cell-based, human; settings: for GI50: Homo sapiens
NCI-H322M = test: NCI-60 SRB growth inhibition, one-dose and five-dose; format: cell-based; settings: Homo sapiens; for inhibition at 10 µM: read-out: percent growth inhibition
EKVX = test: as above; format: cell-based; settings: Homo sapiens; for inhibition at 10 µM: read-out: percent growth inhibition
SF-539 = test: as above; format: cell-based; settings: Homo sapiens; for GI50: SF-539; for inhibition at 10 µM: SF-539, read-out: percent growth inhibition
Melanoma cell lines = test: NCI-60 SRB growth inhibition, subpanel; format: cell-based, human; settings: for GI50: Homo sapiens
Leukaemia cell lines = test: NCI-60 SRB growth inhibition, subpanel; format: cell-based, human; settings: for GI50: Homo sapiens
MDA-MB-231/ATCC = test: NCI-60 SRB growth inhibition, one-dose and five-dose; format: cell-based; settings: Homo sapiens, MDA-MB-231
SK-OV-3 = test: as above; format: cell-based; settings: Homo sapiens; for GI50: SK-OV-3; for inhibition at 10 µM: SK-OV-3, read-out: percent growth inhibition
SF-295 = test: as above; format: cell-based; settings: Homo sapiens; for GI50: SF-295; for inhibition at 10 µM: SF-295, read-out: percent growth inhibition
HOP-62 = test: as above; format: cell-based; settings: Homo sapiens; for GI50: HOP-62; for inhibition at 10 µM: HOP-62, read-out: percent growth inhibition
PC-3 = test: as above; format: cell-based; settings: Homo sapiens; for GI50: PC-3; for inhibition at 10 µM: PC-3, read-out: percent growth inhibition
MOLT-4 = test: as above; format: cell-based; settings: Homo sapiens; for GI50: MOLT-4; for inhibition at 10 µM: MOLT-4, read-out: percent growth inhibition
[3] = tested on: WI-38 normal human fibroblast cells; test: Cytotoxicity towards normal fibroblasts, safety index; format: cell-based; settings: WI-38 versus cancer cell lines
[4] = as above; format: cell-based, human; settings: human, WI-38 normal fibroblast cells
UO-31 = test: NCI-60 SRB growth inhibition, one-dose and five-dose; format: cell-based; settings: Homo sapiens, UO-31
CNS cancer cell lines = test: NCI-60 SRB growth inhibition, subpanel; format: cell-based, human; settings: for GI50: Homo sapiens
Colon cancer cell lines = test: NCI-60 SRB growth inhibition, subpanel; format: cell-based, human; settings: for GI50: Homo sapiens
SK-MEL-28 = test: NCI-60 SRB growth inhibition, one-dose and five-dose; format: cell-based; settings: Homo sapiens; for GI50: SK-MEL-28; for inhibition at 10 µM: SK-MEL-28, read-out: percent growth inhibition
NCI-H23 = test: as above; format: cell-based; settings: Homo sapiens; for GI50: NCI-H23; for inhibition at 10 µM: NCI-H23, read-out: percent growth inhibition
HCC-2998 = test: as above; format: cell-based; settings: Homo sapiens; for GI50: HCC 2998; for inhibition at 10 µM: HCC 2998, read-out: percent growth inhibition
UACC-257 = test: as above; format: cell-based; settings: Homo sapiens; for GI50: UACC-257; for inhibition at 10 µM: UACC-257, read-out: percent growth inhibition
NSCLC cell lines = test: NCI-60 SRB growth inhibition, subpanel; format: cell-based, human; settings: for GI50: Homo sapiens
RXF 393 = test: NCI-60 SRB growth inhibition, one-dose and five-dose; format: cell-based; settings: Homo sapiens; for GI50: RXF 393; for inhibition at 10 µM: RXF 393, read-out: percent growth inhibition
LOX IMVI = test: as above; format: cell-based; settings: Homo sapiens; for inhibition at 10 µM: read-out: percent growth inhibition
Renal cancer cell lines = test: NCI-60 SRB growth inhibition, subpanel; format: cell-based, human; settings: for GI50: Homo sapiens

Chain of Human VEGFR-2 (P35968 20-1356): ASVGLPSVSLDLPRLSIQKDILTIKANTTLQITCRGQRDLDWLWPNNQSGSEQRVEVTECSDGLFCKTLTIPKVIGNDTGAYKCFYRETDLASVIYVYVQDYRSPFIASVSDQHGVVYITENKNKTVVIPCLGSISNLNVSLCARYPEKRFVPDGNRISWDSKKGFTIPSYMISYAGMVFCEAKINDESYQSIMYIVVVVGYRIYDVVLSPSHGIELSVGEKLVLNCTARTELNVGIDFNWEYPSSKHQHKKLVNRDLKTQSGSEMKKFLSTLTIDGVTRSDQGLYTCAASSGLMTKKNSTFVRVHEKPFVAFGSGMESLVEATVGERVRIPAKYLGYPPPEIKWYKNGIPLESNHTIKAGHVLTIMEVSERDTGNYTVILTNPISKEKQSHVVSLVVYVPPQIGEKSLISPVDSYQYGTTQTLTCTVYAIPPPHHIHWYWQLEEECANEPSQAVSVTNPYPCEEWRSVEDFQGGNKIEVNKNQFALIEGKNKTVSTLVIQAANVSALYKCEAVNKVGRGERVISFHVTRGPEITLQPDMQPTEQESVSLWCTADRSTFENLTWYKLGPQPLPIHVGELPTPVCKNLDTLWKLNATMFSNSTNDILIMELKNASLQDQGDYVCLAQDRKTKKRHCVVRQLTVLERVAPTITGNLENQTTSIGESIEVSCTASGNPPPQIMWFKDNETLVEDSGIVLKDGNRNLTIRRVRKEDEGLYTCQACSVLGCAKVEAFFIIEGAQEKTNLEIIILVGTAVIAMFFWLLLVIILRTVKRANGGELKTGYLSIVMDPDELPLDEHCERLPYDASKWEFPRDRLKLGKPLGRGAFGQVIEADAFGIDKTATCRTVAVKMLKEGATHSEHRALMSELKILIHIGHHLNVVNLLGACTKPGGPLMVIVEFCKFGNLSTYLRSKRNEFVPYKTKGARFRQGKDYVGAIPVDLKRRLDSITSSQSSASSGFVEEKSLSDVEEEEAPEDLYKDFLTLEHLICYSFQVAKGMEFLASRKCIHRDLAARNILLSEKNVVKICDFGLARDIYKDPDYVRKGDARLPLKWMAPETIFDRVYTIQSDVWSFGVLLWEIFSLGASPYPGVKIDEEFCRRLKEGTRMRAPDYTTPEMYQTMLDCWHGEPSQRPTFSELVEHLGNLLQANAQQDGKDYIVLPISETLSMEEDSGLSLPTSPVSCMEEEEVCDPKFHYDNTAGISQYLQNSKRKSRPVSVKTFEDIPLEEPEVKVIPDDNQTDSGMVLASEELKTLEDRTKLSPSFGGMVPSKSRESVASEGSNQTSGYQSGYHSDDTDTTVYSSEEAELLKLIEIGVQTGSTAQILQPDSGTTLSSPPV

CC(=O)Nc1ccc(CNc2cccc(C(=O)/C=C/c3cccnc3)c2)cc1 [Compound 5b, (E)-N-(4-(((3–(3-(pyridin-3-yl)acryloyl)phenyl)amino)methyl)phenyl)acetamide]
GI50 (NCI-H522): 1.67 µM | inhibition at 10 µM (NCI-H522): 165% | GI50 (K-562): 2.52 µM | inhibition at 10 µM (K-562): 99.8% | GI50 ([1]; read-out: GI50 MG-MID): 5.71 µM | GI50 ([1]; read-out: MG-MID GI50): 5.71 µM | SI (Selectivity Index) ([1]; full panel MG-MID / Ovarian Cancer subpanel MG-MID): 0.81 | inhibition at 10 µM (SK-MEL-2): 52.7% | GI50 (Breast cancer cell lines; read-out: GI50 MG-MID): 2.45 µM | GI50 (Breast cancer cell lines; read-out: MG-MID GI50): 2.45 µM | SI (Selectivity Index) (Breast cancer cell lines; full panel MG-MID / Breast Cancer subpanel MG-MID): 1.90 | IC50 (Human VEGFR-2): 1.77 ± 0.021 µM | GI50 ([2]; read-out: GI50 MG-MID): 4.1 µM | GI50 ([2]; read-out: MG-MID GI50): 4.1 µM | SI (Selectivity Index) ([2]; full panel MG-MID / Prostatic Cancer subpanel MG-MID): 1.13 | GI50 (NCI-H322M): 13.7 µM | inhibition at 10 µM (NCI-H322M): 29.6% | GI50 (EKVX): 4.87 µM | inhibition at 10 µM (EKVX): 94.2% | GI50 (SF-539): 6.35 µM | inhibition at 10 µM (SF-539): 170% | GI50 (Melanoma cell lines; read-out: GI50 MG-MID): 3.99 µM | GI50 (Melanoma cell lines; read-out: MG-MID GI50): 3.99 µM | SI (Selectivity Index) (Melanoma cell lines; full panel MG-MID / Melanoma subpanel MG-MID): 1.12 | GI50 (Leukaemia cell lines; read-out: GI50 MG-MID): 2.49 µM | GI50 (Leukaemia cell lines; read-out: MG-MID GI50): 2.49 µM | SI (Selectivity Index) (Leukaemia cell lines; full panel MG-MID / leukaemia subpanel MG-MID): 1.87 | GI50 (MDA-MB-231/ATCC): 2.16 µM | GI50 (SK-OV-3): 13.9 µM | inhibition at 10 µM (SK-OV-3): 15.2% | GI50 (SF-295): 10.3 µM | inhibition at 10 µM (SF-295): 91.9% | GI50 (HOP-62): 12.7 µM | inhibition at 10 µM (HOP-62): 74% | GI50 (PC-3): 3.05 µM | inhibition at 10 µM (PC-3): 98.8% | GI50 (MOLT-4): 2.88 µM | inhibition at 10 µM (MOLT-4): 128% | Safety index [3]: >1 | GI50 at 48 h [4]: > 100 µM | GI50 (UO-31): 3.04 µM | GI50 (CNS cancer cell lines; read-out: GI50 MG-MID): 7.46 µM | GI50 (CNS cancer cell lines; read-out: MG-MID GI50): 7.46 µM | SI (Selectivity Index) (CNS cancer cell lines; full panel MG-MID / CNS Cancer subpanel MG-MID): 0.62 | GI50 (Colon cancer cell lines; read-out: GI50 MG-MID): 3.26 µM | GI50 (Colon cancer cell lines; read-out: MG-MID GI50): 3.26 µM | SI (Selectivity Index) (Colon cancer cell lines; full panel MG-MID / Colon Cancer subpanel MG-MID): 1.43 | GI50 (SK-MEL-28): 1.96 µM | inhibition at 10 µM (SK-MEL-28): 166% | GI50 (NCI-H23): 3.22 µM | inhibition at 10 µM (NCI-H23): 148% | GI50 (HCC-2998): 1.82 µM | inhibition at 10 µM (HCC-2998): 195% | GI50 (UACC-257): 9.35 µM | inhibition at 10 µM (UACC-257): 120% | GI50 (NSCLC cell lines; read-out: GI50 MG-MID): 7.24 µM | GI50 (NSCLC cell lines; read-out: MG-MID GI50): 7.24 µM | SI (Selectivity Index) (NSCLC cell lines; full panel MG-MID / NSCLC subpanel MG-MID): 0.64 | GI50 (RXF 393): 3.09 µM | inhibition at 10 µM (RXF 393): 194% | GI50 (LOX IMVI): 1.65 µM | inhibition at 10 µM (LOX IMVI): 199% | GI50 (Renal cancer cell lines; read-out: GI50 MG-MID): 5.2 µM | GI50 (Renal cancer cell lines; read-out: MG-MID GI50): 5.2 µM | SI (Selectivity Index) (Renal cancer cell lines; full panel MG-MID / Renal Cancer subpanel MG-MID): 0.89

CC(=O)Nc1ccc(/C=C/C(=O)c2cccc(NCc3csc4ccccc34)c2)cc1 [Compound 5i, (E)-N-(4–(3-(3-((benzo[b]thiophen-3-ylmethyl)amino)phenyl)-3-oxoprop-1-en-1-yl)phenyl) acetamide]
GI50 (NCI-H522): 5.78 µM | inhibition at 10 µM (NCI-H522): 87.6% | GI50 (K-562): 3.07 µM | inhibition at 10 µM (K-562): 114% | GI50 ([1]; read-out: GI50 MG-MID): 8.28 µM | inhibition at 10 µM (SK-MEL-2): 39.9% | GI50 (Breast cancer cell lines; read-out: GI50 MG-MID): 3.79 µM | IC50 (Human VEGFR-2): 0.66 ± 0.018 µM | GI50 ([2]; read-out: GI50 MG-MID): 5.01 µM | GI50 (NCI-H322M): 17.5 µM | inhibition at 10 µM (NCI-H322M): 41.2% | GI50 (EKVX): 10.8 µM | inhibition at 10 µM (EKVX): 73% | GI50 (SF-539): 2.74 µM | inhibition at 10 µM (SF-539): 171% | GI50 (Melanoma cell lines; read-out: GI50 MG-MID): 8.14 µM | GI50 (Leukaemia cell lines; read-out: GI50 MG-MID): 2.93 µM | GI50 (MDA-MB-231/ATCC): 3.42 µM | GI50 (SK-OV-3): 16.7 µM | inhibition at 10 µM (SK-OV-3): 1.94% | GI50 (SF-295): 11.9 µM | inhibition at 10 µM (SF-295): 73.1% | GI50 (HOP-62): 11.2 µM | inhibition at 10 µM (HOP-62): 73.8% | GI50 (PC-3): 4.57 µM | inhibition at 10 µM (PC-3): 70.8% | GI50 (MOLT-4): 2.73 µM | inhibition at 10 µM (MOLT-4): 111% | Safety index [3]: >1 | GI50 at 48 h [4]: > 100 µM | GI50 (UO-31): 5.16 µM | GI50 (CNS cancer cell lines; read-out: GI50 MG-MID): 6.12 µM | GI50 (Colon cancer cell lines; read-out: GI50 MG-MID): 6.66 µM | GI50 (SK-MEL-28): 11.9 µM | inhibition at 10 µM (SK-MEL-28): 53.4% | GI50 (NCI-H23): 9.1 µM | inhibition at 10 µM (NCI-H23): 57.5% | GI50 (HCC-2998): 12.4 µM | inhibition at 10 µM (HCC-2998): 56% | GI50 (UACC-257): 14.2 µM | inhibition at 10 µM (UACC-257): 50.6% | GI50 (NSCLC cell lines; read-out: GI50 MG-MID): 11.2 µM | GI50 (RXF 393): 10 µM | inhibition at 10 µM (RXF 393): 93.2% | GI50 (LOX IMVI): 2.05 µM | inhibition at 10 µM (LOX IMVI): 174% | GI50 (Renal cancer cell lines; read-out: GI50 MG-MID): 11.3 µM
